According to ChEMBL document CHEMBL5247668, “Design, synthesis and biological evaluation of novel indole-3-carboxylic acid derivatives with antihypertensive activity” (Bioorg Med Chem Lett, 2023):
Activity calls are given as the source filed them. The calls are words filed in the database; no cut-off is given here.

Tests used:
Rattus norvegicus [1] = experiment: Antihypertensive activity in spontaneously hypertensive rat assessed as decrease in blood pressure at 5 to 10 mg/kg, po; format: functional, organism-based; details: dose 5-10 mg/kg
[2] = biological target: T1, Type-1 angiotensin II receptor (Homo sapiens, UniProt P30556); experiment: Displacement of [125I]-Angiotensin II from Angiotensin II type-1 receptor in VSMC cells (unknown origin) by competition radioligand binding assay; format: cell-based
T1 sequence (P30556 whole entry): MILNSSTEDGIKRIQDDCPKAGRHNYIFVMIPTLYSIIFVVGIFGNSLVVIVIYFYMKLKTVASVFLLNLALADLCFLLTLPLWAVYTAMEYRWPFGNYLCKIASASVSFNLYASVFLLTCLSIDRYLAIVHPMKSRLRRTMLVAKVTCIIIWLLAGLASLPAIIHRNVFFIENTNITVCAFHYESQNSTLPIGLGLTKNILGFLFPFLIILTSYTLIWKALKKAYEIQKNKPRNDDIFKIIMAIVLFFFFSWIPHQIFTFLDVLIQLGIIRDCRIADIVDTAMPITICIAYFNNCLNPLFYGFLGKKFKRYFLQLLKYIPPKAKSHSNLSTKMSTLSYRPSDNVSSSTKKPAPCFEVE

[3] = biological target: T1, Type-1 angiotensin II receptor; experiment: Displacement of [125I]-Angiotensin II from Angiotensin II type-1 receptor in VSMC cells (unknown origin) assessed as inhibition constant by competition radioligand binding assay; format: cell-based
Rattus norvegicus [4] = experiment: Antihypertensive activity in spontaneously hypertensive rat assessed as decrease in maximal mean blood pressure at 10 mg/kg, po; format: functional
[5] = MRT (0 to infinity) in spontaneously hypertensive Wistar rat at 10 mg/kg, po; format: ADME, organism-based; details: in vivo
Rattus norvegicus [6] = experiment: Antihypertensive activity in spontaneously hypertensive rat assessed as decrease in maximal mean blood pressure at 10 mg/kg, po measured for 24 hrs; format: functional, organism-based
[7] = AUC (0 to 72 hrs) in spontaneously hypertensive Wistar rat at 10 mg/kg, po; format: ADME, organism-based; parameters: dose 10 mg/kg, route po; details: in vivo
[8] = MRT (0 to 72 hrs) in spontaneously hypertensive Wistar rat at 10 mg/kg, po; format: ADME, organism-based; details: in vivo
[9] = Half life in spontaneously hypertensive Wistar rat at 10 mg/kg, po; format: ADME, organism-based; details: in vivo
[10] = AUC (0 to infinity) in spontaneously hypertensive Wistar rat at 10 mg/kg, po; format: ADME, organism-based; parameters: dose 10 mg/kg, route po; details: in vivo
[11] = Cmax in spontaneously hypertensive Wistar rat at 10 mg/kg, po; format: ADME, organism-based; parameters: dose 10 mg/kg, route po; details: in vivo
[12] = Tmax in spontaneously hypertensive Wistar rat at 10 mg/kg, po; format: ADME, organism-based; details: in vivo

Compound	Activity (Rattus norvegicus [1])	IC50 [2]	Ki [3]	other results
O=C(O)c1c(COCc2ccccc2)n(C(=O)c2ccccc2)c2ccccc12	Active	32.2 nM	31.4 nM	–
O=C(O)c1c(CO)n(C(=O)c2ccccc2)c2ccccc12	Active	31.1 nM	30.8 nM	–
CCCCc1c(C(=O)O)c2ccccc2n1S(C)(=O)=O	Active	29.2 nM	28.6 nM	–
CS(=O)(=O)n1c(CO)c(C(=O)O)c2ccccc21	Active	27.1 nM	26.3 nM	–
CCCCc1nc(Cl)c(CO)n1Cc1ccc(-c2ccccc2-c2nnn[nH]2)cc1 [LOSARTAN]	–	–	–	Activity (Rattus norvegicus [4]): 42.5 mmHg
O=C(O)c1c(-c2ccccc2)n(C(=O)c2ccccc2)c2ccccc12	Active	12.3 nM	11 nM	Activity (Rattus norvegicus [4]): 48.6 mmHg; MRT inf [5]: 30.3 h; Activity (Rattus norvegicus [6]): Active; AUC(0-t) [7]: 253 ng·h/mL; MRT last [8]: 20.2 h; half-life [9]: 19.9 h; AUC(0-inf) [10]: 260 ng·h/mL; Cmax [11]: 18.1 ng/mL; Tmax [12]: 2.7 h
CS(=O)(=O)n1c(COCc2ccccc2)c(C(=O)O)c2ccccc21	Active	25.5 nM	24.7 nM	–
CCCCc1c(C(=O)O)c2ccccc2n1C(=O)c1ccccc1	Active	22.2 nM	21.9 nM	–
Cc1ccc(S(=O)(=O)n2c(-c3ccccc3)c(C(=O)O)c3ccccc32)cc1	Active	18 nM	16.4 nM	–
Cc1ccc(S(=O)(=O)n2c(CO)c(C(=O)O)c3ccccc32)cc1	Active	24.2 nM	23.3 nM	–
CS(=O)(=O)n1c(-c2ccccc2)c(C(=O)O)c2ccccc21	Active	11.3 nM	10.8 nM	Activity (Rattus norvegicus [4]): 46.3 mmHg; Activity (Rattus norvegicus [6]): Active
CCCCc1c(C(=O)O)c2ccccc2n1S(=O)(=O)c1ccc(C)cc1	Active	28.3 nM	27.3 nM	–
Cc1ccc(S(=O)(=O)n2c(COCc3ccccc3)c(C(=O)O)c3ccccc32)cc1	Active	22.4 nM	21.7 nM	–
